Experimental data taken from ChEMBL document CHEMBL3046012, “Synthesis and Cytotoxic Activity of 6-(Substituted-Phenyl)Amino-5,8-Quinazolinediones” (Med Chem Res, 2004).
≈ marks a conversion by molar mass, not a printed value.

Columns and labels:
Format in all cases: functional, cell-based
[1] = system: XF498; assay: Cytotoxicity against Homo sapiens (human) XF498 cells after 72 hr by MTT assay; details: XF498, 72 h
[2] = system: HCT-15; assay: Cytotoxicity against Homo sapiens (human) HCT15 cells after 72 hr by MTT assay; details: HCT-15, 72 h
[3] = system: A549; assay: Cytotoxicity against Homo sapiens (human) A549 cells after 72 hr by MTT assay; details: A549, 72 h
[4] = system: SK-MEL-2; assay: Cytotoxicity against Homo sapiens (human) SK-MEL-2 cells after 72 hr by MTT assay; details: SK-MEL-2, 72 h
[5] = system: SK-OV-3; assay: Cytotoxicity against Homo sapiens (human) SKOV3 cells after 72 hr by MTT assay; details: SK-OV-3, 72 h

Row | SMILES | IC50 [1] | IC50 [2] | IC50 [3] | IC50 [4] | IC50 [5]
1 | O=C1C(Nc2ccc(Cl)cc2)=C(Cl)C(=O)c2ncccc21 | 3.31 mg/L (≈ 10.4 µM) | 0.34 mg/L (≈ 1.07 µM) | 5.03 mg/L (≈ 15.8 µM) | 1.3 mg/L (≈ 4.07 µM) | 1.33 mg/L (≈ 4.17 µM)
2 | O=C1C(Nc2ccccc2)=C(Cl)C(=O)c2ncccc21 | 1.33 mg/L (≈ 4.67 µM) | 0.74 mg/L (≈ 2.6 µM) | 2.3 mg/L (≈ 8.08 µM) | 1.42 mg/L (≈ 4.99 µM) | 1.34 mg/L (≈ 4.71 µM)
3 | O=C1C(Nc2ccc(Cl)cc2)=CC(=O)c2ncncc21 | 0.01 mg/L (≈ 0.035 µM) | < 0.01 mg/L | 0.02 mg/L (≈ 0.07 µM) | 0.01 mg/L (≈ 0.035 µM) | 0.01 mg/L (≈ 0.035 µM)
4 | O=C1C(Nc2ccc(I)cc2)=C(Cl)C(=O)c2ncncc21 | 1.33 mg/L (≈ 3.23 µM) | 0.28 mg/L (≈ 0.68 µM) | 1.51 mg/L (≈ 3.67 µM) | 0.3 mg/L (≈ 0.729 µM) | 0.27 mg/L (≈ 0.656 µM)
5 | O=C1C(Nc2ccc(F)cc2)=C(Cl)C(=O)c2ncncc21 | 0.19 mg/L (≈ 0.626 µM) | 0.04 mg/L (≈ 0.132 µM) | 0.33 mg/L (≈ 1.09 µM) | 0.08 mg/L (≈ 0.263 µM) | 0.27 mg/L (≈ 0.889 µM)
6 | CCOc1ccc(NC2=C(Cl)C(=O)c3ncncc3C2=O)cc1 | 0.3 mg/L (≈ 0.91 µM) | 0.04 mg/L (≈ 0.121 µM) | 0.33 mg/L (≈ 1 µM) | 0.08 mg/L (≈ 0.243 µM) | 0.22 mg/L (≈ 0.667 µM)
7 | O=C1C(Nc2ccc(I)cc2)=C(Cl)C(=O)c2ncccc21 | 3.61 mg/L (≈ 8.79 µM) | 1.27 mg/L (≈ 3.09 µM) | 4.29 mg/L (≈ 10.4 µM) | 3.3 mg/L (≈ 8.04 µM) | 1.62 mg/L (≈ 3.95 µM)
8 | CCOc1ccc(NC2=CC(=O)c3ncncc3C2=O)cc1 | 0.03 mg/L (≈ 0.102 µM) | 0.02 mg/L (≈ 0.0677 µM) | 0.16 mg/L (≈ 0.542 µM) | 0.02 mg/L (≈ 0.0677 µM) | 0.02 mg/L (≈ 0.0677 µM)
9 | O=C1C(Nc2ccccc2)=CC(=O)c2ncncc21 | 0.01 mg/L (≈ 0.0398 µM) | 0.01 mg/L (≈ 0.0398 µM) | 0.02 mg/L (≈ 0.0796 µM) | 0.01 mg/L (≈ 0.0398 µM) | < 0.01 mg/L
10 | O=C1C(Nc2ccc(Cl)cc2)=C(Cl)C(=O)c2ncncc21 | 0.4 mg/L (≈ 1.25 µM) | 0.29 mg/L (≈ 0.906 µM) | 0.3 mg/L (≈ 0.937 µM) | 0.3 mg/L (≈ 0.937 µM) | 0.31 mg/L (≈ 0.968 µM)
11 | O=C1C(Nc2ccc([N+](=O)[O-])cc2)=C(Cl)C(=O)c2ncncc21 | 15.4 mg/L (≈ 46.4 µM) | 0.3 mg/L (≈ 0.907 µM) | 2.77 mg/L (≈ 8.38 µM) | 0.61 mg/L (≈ 1.84 µM) | 1.28 mg/L (≈ 3.87 µM)
12 | N#Cc1ccc(NC2=C(Cl)C(=O)c3ncncc3C2=O)cc1 | 1.68 mg/L (≈ 5.41 µM) | 0.24 mg/L (≈ 0.772 µM) | 1.34 mg/L (≈ 4.31 µM) | 0.62 mg/L (≈ 2 µM) | 0.31 mg/L (≈ 0.998 µM)
13 | O=C1C(Nc2ccc(C(F)(F)F)cc2)=C(Cl)C(=O)c2ncncc21 | 0.29 mg/L (≈ 0.82 µM) | 0.03 mg/L (≈ 0.0848 µM) | 0.32 mg/L (≈ 0.905 µM) | 0.06 mg/L (≈ 0.17 µM) | 0.21 mg/L (≈ 0.594 µM)
14 | O=C1C(Cl)=C(Nc2ccc(Br)cc2)C(=O)c2cnccc21 | 0.22 mg/L (≈ 0.605 µM) | 0.1 mg/L (≈ 0.275 µM) | 1.96 mg/L (≈ 5.39 µM) | 0.23 mg/L (≈ 0.633 µM) | 0.29 mg/L (≈ 0.798 µM)
15 | O=C1C(Cl)=C(Nc2ccc(F)cc2)C(=O)c2cnccc21 | 1.54 mg/L (≈ 5.09 µM) | 0.31 mg/L (≈ 1.02 µM) | 1.27 mg/L (≈ 4.2 µM) | 1.22 mg/L (≈ 4.03 µM) | 1.86 mg/L (≈ 6.14 µM)
16 | O=C1C(Nc2ccc(F)cc2)=CC(=O)c2ncncc21 | 0.04 mg/L (≈ 0.149 µM) | 0.02 mg/L (≈ 0.0743 µM) | 1.08 mg/L (≈ 4.01 µM) | 0.05 mg/L (≈ 0.186 µM) | 0.07 mg/L (≈ 0.26 µM)
17 | O=C1C(Nc2ccc(Br)cc2)=CC(=O)c2ncncc21 | 0.03 mg/L (≈ 0.0909 µM) | 0.01 mg/L (≈ 0.0303 µM) | 0.09 mg/L (≈ 0.273 µM) | 0.02 mg/L (≈ 0.0606 µM) | 0.02 mg/L (≈ 0.0606 µM)
18 | O=C1C(Nc2ccccc2)=C(Cl)C(=O)c2ncncc21 | 0.28 mg/L (≈ 0.98 µM) | 0.03 mg/L (≈ 0.105 µM) | 0.33 mg/L (≈ 1.16 µM) | 0.04 mg/L (≈ 0.14 µM) | 0.19 mg/L (≈ 0.665 µM)
19 | Cc1ccc(NC2=CC(=O)c3ncncc3C2=O)cc1 | 0.13 mg/L (≈ 0.49 µM) | 0.01 mg/L (≈ 0.0377 µM) | 0.02 mg/L (≈ 0.0754 µM) | 0.02 mg/L (≈ 0.0754 µM) | 0.03 mg/L (≈ 0.113 µM)
20 | Cc1ccc(NC2=C(Cl)C(=O)c3ncccc3C2=O)cc1 | 1.26 mg/L (≈ 4.22 µM) | 0.33 mg/L (≈ 1.1 µM) | 1.14 mg/L (≈ 3.82 µM) | 0.42 mg/L (≈ 1.41 µM) | 1.27 mg/L (≈ 4.25 µM)
21 | O=C1C(Nc2ccc(Br)cc2)=C(Cl)C(=O)c2ncccc21 | 2.83 mg/L (≈ 7.78 µM) | 0.34 mg/L (≈ 0.935 µM) | 4.28 mg/L (≈ 11.8 µM) | 1.26 mg/L (≈ 3.47 µM) | 0.92 mg/L (≈ 2.53 µM)
22 | O=C1C(Nc2ccc(I)cc2)=CC(=O)c2ncncc21 | 0.04 mg/L (≈ 0.106 µM) | 0.01 mg/L (≈ 0.0265 µM) | 0.27 mg/L (≈ 0.716 µM) | 0.02 mg/L (≈ 0.053 µM) | 0.04 mg/L (≈ 0.106 µM)
23 | O=C1C(Cl)=C(Nc2ccc(Cl)cc2)C(=O)c2cnccc21 | 1.28 mg/L (≈ 4.01 µM) | 0.18 mg/L (≈ 0.564 µM) | 1.1 mg/L (≈ 3.45 µM) | 0.66 mg/L (≈ 2.07 µM) | 0.97 mg/L (≈ 3.04 µM)
24 | O=C1C(Cl)=C(Nc2ccc(I)cc2)C(=O)c2cnccc21 | 0.04 mg/L (≈ 0.0974 µM) | 0.01 mg/L (≈ 0.0244 µM) | 0.27 mg/L (≈ 0.658 µM) | 0.02 mg/L (≈ 0.0487 µM) | 0.04 mg/L (≈ 0.0974 µM)
25 | O=C1C(Nc2ccc(OC(F)(F)F)cc2)=C(Cl)C(=O)c2ncncc21 | 0.23 mg/L (≈ 0.622 µM) | 0.22 mg/L (≈ 0.595 µM) | 0.37 mg/L (≈ 1 µM) | 0.29 mg/L (≈ 0.784 µM) | 0.27 mg/L (≈ 0.73 µM)
26 | O=C1C(Nc2ccc(F)cc2)=C(Cl)C(=O)c2ncccc21 | 0.36 mg/L (≈ 1.19 µM) | 0.18 mg/L (≈ 0.595 µM) | 1.25 mg/L (≈ 4.13 µM) | 1.39 mg/L (≈ 4.59 µM) | 0.5 mg/L (≈ 1.65 µM)
